What was measured:
[1] = Absorption and emission spectra of hydrazide fluorophores and their hydrazones with propanal; type: physicochemical; details: 10 mM PB, pH 7 containing 0.5% DMSO (v/v); for Hydrazide + propanal Abs max / Hydrazide + propanal Em max: corresponding hydrazone with propanal
Method: FIGS. 15A-15F show absorption (top) and emission (bottom) spectra of (FIGS. 15A, 15B) DCCH, (FIGS. 15C, 15D) BODIPYH, and (FIGS. 15E, 15F) TxRH and their corresponding hydrazones with propanal in 10 mM PB, pH 7 containing 0.5% DMSO (v/v). The excitation wavelengths used for obtaining the emission spectra are as follows: DCCH (ex: 405 nm), BODIPYH (ex: 450 nm), TxRH (543 nm). The arrow in the absorption spectra denotes the wavelength of the excitation laser used in the microscopy experiments.

A549 cells = experiment: Detection of carbonylation in live cells with hydrazide fluorophores; type: cell-based
Method: At the end of the incubation period with the OSA or vehicle, 1 μL of 2 mM fluorophore (final concentrations: fluorophore=10 μM; DMSO=0.5%, v/v) is added to one corner of each well, taking care not to touch the bottom of the well with the pipet tip, and mixed well, by gently moving the chambered coverglass in a circular motion (clockwise as well as counter-clockwise). The coverglass is then returned to the cell culture incubator and incubated for 30-45 min. The difference in fluorescence between the control and the sample may be affected by the time of incubation with the fluorophore and the cell line. The incubation time is adjusted based on the cell line and oxidant used. The medium is discarded and 500 μL fresh medium added to each well. The coverglass is returned to the cell culture incubator for 3 min. The washing step is repeated two more times. The final wash medium is discarded, and 200 μL of fresh medium added, and the cells imaged by, e.g., confocal microscopy.
A549 cells were treated with vehicle (0.1% DMSO, v/v) or 100 μM menadione for 1 h, followed by 10 μM DCCH, BODIPYH, TxRH or TFCH for 30 min. The medium was discarded, and fresh medium was added to the cells and allowed to incubate for 5 min. After an additional round of medium change, the cells were imaged live using a confocal laser scanning microscope.
FIGS. 9A-9C show quantitative analysis of carbonyls in live cells in high throughput platform: A549 cells grown in standard media (control) or serum free media (serum starved) for ˜24 h were allowed to react with 10 μM hydrazide fluorophores for 1 h. Cells were washed and the emission of respective samples were recorded. The excitation (ex) and emission (em) wavelengths used are as follows: (FIG. 9A) DCCH (ex: 405 nm; em: 475 nm); (FIG. 9B) BODIPYH (ex: 488 nm; em: 530 nm); (FIG. 9C) TxRH (ex: 543 nm; em: 620 nm). Fluorescence in each sample was normalized to cell density. The graphs represent fluorescence of the serum starved samples relative to the control samples.
The cells were washed and imaged live using a confocal microscope. […]

[2] = Fluorescence quantum yield; type: physicochemical; details: in water; 'believed to have'
From the text: The fluorescence “quantum yield” (φ) is the ratio of the number of photons emitted to the number absorbed. The term fluorescence quantum yield (φ) is a measure of the efficiency of photon emission through fluorescence, which is the loss of energy by a substance that has absorbed light via emission of a photon. In other words, the fluorescence quantum yield gives the probability of the excited state being deactivated by fluorescence rather than by another, non-radiative mechanism such as internal conversion or vibrational relaxation (non-radiative loss of energy as heat to the surroundings). The fluorescence intensity (F) is proportional to the amount of light absorbed, F=φ(Io-I), where lo is the intensity of the incident light and l is the intensity transmitted. […] When the concentration of the fluorescent compound is low, the fluorescence intensity is given by the equation: […].
TFCH is believed to have a quantum yield of >0.1 in water. […] “Solvent effect on absolute fluorescence quantum yield of rhodamine 6G determined using transient thermal lens technique.” Modern physics letters B 13, no. […] “Fluorescence lifetime of acridine in water-organic solvent mixtures.” Bulletin of the Chemical Society of Japan 42, no. […]

[3] = Reaction of TFCH with biomolecule ketones, cell-free systems versus living cells
From the text: It is believed that, in vivo, small molecules such as amino acids are involved in catalysis of the reaction.

oxidized BSA = oxidized BSA (Bos taurus, UniProt P02769); experiment: Fluorescent labelling of oxidized BSA (SDS-PAGE); type: biochemical; details: isolated system, oxidized BSA as model carbonylated biomolecule
oxidized BSA, sequence (P02769 25-607): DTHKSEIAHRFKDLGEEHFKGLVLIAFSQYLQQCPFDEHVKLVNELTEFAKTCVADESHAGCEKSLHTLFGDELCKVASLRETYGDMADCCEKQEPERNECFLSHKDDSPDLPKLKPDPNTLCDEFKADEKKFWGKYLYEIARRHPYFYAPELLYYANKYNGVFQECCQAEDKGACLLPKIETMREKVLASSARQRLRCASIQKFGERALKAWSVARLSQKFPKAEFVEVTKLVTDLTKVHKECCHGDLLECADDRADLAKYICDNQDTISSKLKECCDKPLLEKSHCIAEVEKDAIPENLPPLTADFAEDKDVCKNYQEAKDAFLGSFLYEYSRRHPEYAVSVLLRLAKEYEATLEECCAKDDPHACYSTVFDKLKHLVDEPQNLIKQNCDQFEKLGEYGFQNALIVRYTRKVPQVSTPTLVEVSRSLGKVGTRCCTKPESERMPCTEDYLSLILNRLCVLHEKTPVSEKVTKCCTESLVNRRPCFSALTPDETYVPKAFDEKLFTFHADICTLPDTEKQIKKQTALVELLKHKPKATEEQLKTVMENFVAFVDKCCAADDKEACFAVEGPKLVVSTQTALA
Method: (§1) Oxidized BSA was used as a model carbonylated biomolecule and TFCH's ability to detect it in an isolated system was tested. […] Next, the compatibility of TFCH for cell-based assays was established using lung cancer (A549) cells as a model cell line. TFCH's influx and efflux were achieved readily (<5 min) (FIGS. 21D and 21E). […] Importantly, given the turn-up property of the fluorophore, it was possible to identify carbonyls in live cells in the presence of unreacted fluorophores by a one-step high content screening (HCS)-compatible assay. Low concentration of the dye (2 µM) can detect carbonyls induced by serum starvation in live cells within 30 min (FIG. 22C). This single-step (no wash) assay format may be particularly suitable for screening molecules that have a propensity to induce cell detachment. Alternatively, excess fluorophore can be removed and the cells can be either imaged live (FIGS. 21D and 21E) or can be fixed and preserved for analysis at a later time Indeed, a similar spatial distribution and increase in carbonylation due to serum starvation was detected in both live (FIGS. 5, 19B) and fixed cells (fixed after fluorescent labeling in live cells). […] See also, (Vemula, Ni, & Fedorova, 2015).
(§2) FIGS. 21A-21B, Limit of detection (LOD) of TFCZ (hydrazone of TFCH and propanal) in A549 cell lysate. […] Emission spectra of the lysates were recorded by exciting the samples at 372 nm.

[4] = Photochemical comparison of TFCH with BzCH; type: physicochemical
lung cancer (A549) cells = experiment: Cellular influx and efflux of TFCH in live A549 cells; type: cell-based
Method: as §1, §2

| SMILES | Hydrazide + propanal Abs max [1] [nm] | Hydrazide + propanal Em max [1] [nm] | Hydrazide Abs max [1] [nm] | Hydrazide Em max [1] [nm] | suitability as optical probe for carbonylation in live cells (A549 cells) | quantum yield [2] | reaction with biomolecule ketones in cell-free systems relative to living cells [3] | labelling of oxidized BSA (oxidized BSA) | photostability compared with BzCH [4] | absorption at 405 nm compared with BzCH ([4]; 405 nm) | influx and efflux time (lung cancer (A549) cells) [min] |
| --- | --- | --- | --- | --- | --- | --- | --- | --- | --- | --- | --- |
| Cc1cc(C)n2c1C=C1C=CC(CCC(=O)NN)=[N+]1[B-]2(F)F [BODIPYH] | 503 | 510 | 503 | 510 | found suitable as optical probes for carbonylation in live cells |  |  |  |  |  |  |
| CCN(CC)c1ccc2cc(C(=O)NN)c(=O)oc2c1 [DCCH, 7-(diethylamino)coumarin-3-carbohydrazide] | 439 | 481 | 429 | 479 | found suitable as optical probes for carbonylation in live cells |  |  |  |  |  |  |
| NNc1ccc2c(C(F)(F)F)cc(=O)oc2c1 [TFCH, 4-Trifluoromethyl-7-hydrazinyl-2H-chromen-2-one] |  |  |  |  |  | > 0.1 | eight hundred times slower | able to fluorescently label oxidized BSA and form a stable conjugate | more photostable than BzCH | higher absorption at 405 nm than the BzCH | < 5 |
| NNS(=O)(=O)c1ccc(C2=c3cc4c5c(c3Oc3c2cc2c6c3CCCN6CCC2)CCC[N+]=5CCC4)c(S(=O)(=O)[O-])c1 [TxRH] | 589 | 607 | 589 | 607 | found suitable as optical probes for carbonylation in live cells |  |  |  |  |  |  |

Source: patent publication US20210356472A1, “METHODS AND COMPOSITIONS FOR DETECTION AND VISUALIZATION OF OXIDATIVE STRESS-INDUCED CARBONYLATION IN CELLS” (The Research Foundation for The State University of New York, priority 2020, published 2021)
